One data set relates to Bacillus cereus. In words: Antimicrobial activity against Gram-positive Bacillus cereus ATCC 17788 after 16 to 24 hrs by micro-dilution method. Format: functional. In general terms: Broth dilution looks for growth in wells or tubes with falling amounts of substance.
The subject of the next data set is Listeria monocytogenes. In words: Antimicrobial activity against Gram-positive Listeria monocytogenes ATCC 19115 after 16 to 24 hrs by micro-dilution method. Format: functional.
Data set [1] has as its system Staphylococcus aureus. In words: Antimicrobial activity against Gram-positive methicillin-resistant Staphylococcus aureus 1 after 16 to 24 hrs by micro-dilution method. Format: functional.
The next data set relates to Bacillus anthracis. The data set can be described thus: Antimicrobial activity against Gram-positive Bacillus anthracis str. Sterne after 16 to 24 hrs by micro-dilution method. Format: functional.
The subject of data set [2] is Staphylococcus aureus. In words: Antimicrobial activity against Gram-positive Staphylococcus aureus ATCC 29213 after 16 to 24 hrs by micro-dilution method. Format: functional.
In a further data set the test system is Haemophilus influenzae. In words: Antimicrobial activity against Gram-negative Haemophilus influenzae ATCC 51907 after 16 to 24 hrs by micro-dilution method. Format: functional.
The subject of data set [3] is Mycolicibacterium smegmatis. In words: Antimicrobial activity against Mycobacterium smegmatis MC2-155 after 16 to 24 hrs by micro-dilution method. Conditions: str. MC2 155. Format: functional.
The next data set deals with Pseudomonas aeruginosa. In words: Antimicrobial activity against Gram-negative Pseudomonas aeruginosa PAO1 after 16 to 24 hrs by micro-dilution method. Format: functional.
For data set [4], the system named is Staphylococcus aureus. The data set can be described thus: Antimicrobial activity against Gram-positive methicillin-resistant Staphylococcus aureus 2 after 16 to 24 hrs by micro-dilution method. Format: functional.
A short description of data set [5]: Drug metabolism assessed as Mycobacterium tuberculosis Eis mediated compound modification at 100 uM. Format: ADME.
The target of data set [6] is T1, Aminoglycoside 3'-phosphotransferase (Escherichia coli, UniProt P00551).
T1 sequence (P00551 whole entry): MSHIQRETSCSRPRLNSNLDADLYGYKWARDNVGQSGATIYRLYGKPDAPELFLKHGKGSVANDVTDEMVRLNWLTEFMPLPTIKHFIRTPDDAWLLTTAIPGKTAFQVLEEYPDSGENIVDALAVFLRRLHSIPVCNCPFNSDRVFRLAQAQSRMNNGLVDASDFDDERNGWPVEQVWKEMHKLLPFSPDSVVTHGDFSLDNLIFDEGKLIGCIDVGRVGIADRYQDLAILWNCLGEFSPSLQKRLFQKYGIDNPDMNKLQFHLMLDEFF
In words: Drug metabolism assessed as Escherichia coli APH(3')-Ia-mediated compound modification at 100 uM. Format: ADME.

A short description of data set [7]: Drug metabolism assessed as Escherichia coli AAC(3)-IV mediated compound modification at 100 uM. Format: ADME.
For the next data set, the system named is Bacillus subtilis. In words: Antimicrobial activity against Gram-positive Bacillus subtilis 168 after 16 to 24 hrs by micro-dilution method. Format: functional.
Data set [8] is described as follows: Drug metabolism assessed as Staphylococcus aureus Bifunctional AAC(6')-1e/APH(2'')-1a mediated compound modification at 100 uM. Format: ADME.

The structures appear in SMILES notation. Values after ≈ are worked out from the molar mass of the structure shown.

In the case of `CCN[C@@H]1C[C@H](N)[C@@H](O[C@H]2OC(CNC(=O)CN)=CC[C@H]2N)[C@H](O)[C@H]1O[C@H]1OC[C@](C)(O)[C@H](NC)[C@H]1O`, the MIC against Bacillus cereus was determined as 75 µg/mL (≈ 141 µM); in the data set on Listeria monocytogenes, 18.8 µg/mL (≈ 35.3 µM); in the data set with Staphylococcus aureus [1], 32 µg/mL (≈ 60.1 µM); in the data set on Bacillus anthracis, 0.5 µg/mL (≈ 0.939 µM); against Staphylococcus aureus [2], 0.5 µg/mL (≈ 0.939 µM); against Haemophilus influenzae, 37.5 µg/mL (≈ 70.4 µM). The MIC was 1 µg/mL (≈ 1.88 µM) in data set [3], 37.5 µg/mL (≈ 70.4 µM) with Pseudomonas aeruginosa, 1 µg/mL (≈ 1.88 µM) against Staphylococcus aureus [4] and 37.5 µg/mL (≈ 70.4 µM) against Bacillus subtilis. For the same compound, the Drug metabolism result is listed as “metabolite_detected” in [5], “metabolite_notdetected” in [6], “metabolite_detected” in [7] and “metabolite_detected” in [8].
For `CN[C@@H]1[C@@H](O)[C@@H](O[C@@H]2[C@@H](O)[C@H](O[C@H]3OC(CNC(=O)CN)=CC[C@H]3N)[C@@H](N)C[C@H]2N)OC[C@]1(C)O`, the MIC with Bacillus cereus was 75 µg/mL (≈ 149 µM); against Listeria monocytogenes it was 18.8 µg/mL (≈ 37.3 µM); against Staphylococcus aureus [1] it was 8 µg/mL (≈ 15.9 µM); against Bacillus anthracis it was no more than 0.25 µg/mL; in the data set with Staphylococcus aureus [2] it was 1 µg/mL (≈ 1.98 µM); in the data set on Haemophilus influenzae, 37.5 µg/mL (≈ 74.3 µM). For the same compound, the MIC is 0.5 µg/mL (≈ 0.991 µM) in data set [3], 18.8 µg/mL (≈ 37.3 µM) in the data set on Pseudomonas aeruginosa, 2 µg/mL (≈ 3.96 µM) against Staphylococcus aureus [4] and 37.5 µg/mL (≈ 74.3 µM) against Bacillus subtilis. For the same compound, the Drug metabolism entry in data set [5] is on record as “metabolite_detected”; in data set [6], “metabolite_notdetected”; in data set [7], “metabolite_detected”; in [8] it was “metabolite_detected”.
As for `NCC[C@@H](O)C(=O)NC[C@H]1O[C@H](O[C@@H]2[C@@H](O)[C@H](O[C@@H]3O[C@@H](CO)[C@H](O)[C@@H](N)[C@@H]3O)[C@@H](NC(=O)[C@@H](O)CCN)C[C@H]2N)[C@H](O)[C@@H](O)[C@@H]1O` (stereo in doubt), the MIC in the data set with Bacillus cereus was 150 µg/mL (≈ 218 µM); in the data set with Listeria monocytogenes, 150 µg/mL (≈ 218 µM); in the data set with Staphylococcus aureus [1], greater than 128 µg/mL; against Bacillus anthracis, greater than 128 µg/mL; in the data set on Staphylococcus aureus [2], 128 µg/mL (≈ 186 µM); against Haemophilus influenzae, greater than 150 µg/mL. The MIC in [3] is 8 µg/mL (≈ 11.6 µM); against Pseudomonas aeruginosa it was 75 µg/mL (≈ 109 µM); in the data set on Staphylococcus aureus [4], greater than 128 µg/mL; in the data set with Bacillus subtilis it was greater than 150 µg/mL. Besides, the Drug metabolism result in [5] is given as “metabolite_detected”; in [6], “metabolite_notdetected”; in data set [7], “metabolite_detected”; in [8] it was “metabolite_detected”.
With `NCC(=O)NCC[C@H](O)C(=O)N[C@H]1C[C@@H](N)[C@H](O[C@H]2O[C@H](CNC(=O)CN)[C@@H](O)[C@H](O)[C@H]2O)[C@@H](O)[C@@H]1O[C@H]1O[C@H](CO)[C@@H](O)[C@H](N)[C@H]1O` (stereo in doubt), the MIC against Bacillus cereus is greater than 150 µg/mL; in the data set on Listeria monocytogenes it was greater than 150 µg/mL; against Staphylococcus aureus [1], greater than 128 µg/mL; against Bacillus anthracis, greater than 128 µg/mL; in the data set with Staphylococcus aureus [2] it was greater than 128 µg/mL; in the data set with Haemophilus influenzae, greater than 150 µg/mL. The MIC in data set [3] was 64 µg/mL (≈ 91.5 µM); with Pseudomonas aeruginosa it was greater than 150 µg/mL; in the data set on Staphylococcus aureus [4], greater than 128 µg/mL; in the data set on Bacillus subtilis it was greater than 150 µg/mL. The Drug metabolism result in [5] was “metabolite_detected”; in data set [6], “metabolite_notdetected”; in [7], “metabolite_detected”; in data set [8], “metabolite_detected”.
`N[C@H]1[C@H](O)[C@H](O[C@@H]2[C@@H](O)[C@H](O[C@@H]3O[C@@H](CNC(=O)OCc4ccccc4)[C@H](O)C[C@@H]3N)[C@@H](N)C[C@H]2N)O[C@@H](CO)[C@@H]1O` (stereo in doubt): the MIC against Bacillus cereus was greater than 150 µg/mL; in the data set with Listeria monocytogenes it was greater than 150 µg/mL; in the data set on Staphylococcus aureus [1], greater than 128 µg/mL; in the data set with Bacillus anthracis it was 64 µg/mL (≈ 106 µM); against Staphylococcus aureus [2], 128 µg/mL (≈ 213 µM); in the data set with Haemophilus influenzae it was 75 µg/mL (≈ 125 µM). Besides, the MIC in [3] is 16 µg/mL (≈ 26.6 µM); in the data set on Pseudomonas aeruginosa it was greater than 150 µg/mL; with Staphylococcus aureus [4], greater than 128 µg/mL; in the data set on Bacillus subtilis, greater than 150 µg/mL. The Drug metabolism result in data set [5] is listed as “metabolite_detected”; in data set [6], “metabolite_notdetected”; in [7], “metabolite_detected”; in data set [8], “metabolite_detected”.
For `NCC[C@H](O)C(=O)N[C@@H]1C[C@H](N)[C@@H](O[C@H]2O[C@H](CN)[C@@H](O)[C@H](O)[C@H]2O)[C@H](O)[C@H]1O[C@H]1O[C@H](CO)[C@@H](O)[C@H](N)[C@H]1O` [AMIKACIN], the MIC against Bacillus cereus stood at 9.4 µg/mL (≈ 16.1 µM); with Listeria monocytogenes it was 9.4 µg/mL (≈ 16.1 µM); with Staphylococcus aureus [1], 0.5 µg/mL (≈ 0.854 µM); in the data set on Bacillus anthracis it was 16 µg/mL (≈ 27.3 µM); in the data set on Staphylococcus aureus [2], 1 µg/mL (≈ 1.71 µM); with Haemophilus influenzae, 37.5 µg/mL (≈ 64 µM). The MIC in [3] is no more than 0.25 µg/mL; with Pseudomonas aeruginosa, 2.3 µg/mL (≈ 3.93 µM); with Staphylococcus aureus [4] it was 32 µg/mL (≈ 54.6 µM); against Bacillus subtilis, 37.5 µg/mL (≈ 64 µM).
As to `NC[C@H]1O[C@H](O[C@H]2[C@H](O)[C@@H](O[C@H]3O[C@H](CO)[C@@H](O)[C@H](N)[C@H]3O)[C@H](N)C[C@@H]2N)[C@H](O)[C@@H](O)[C@@H]1O` [KANAMYCIN], the MIC against Bacillus cereus was 9.4 µg/mL (≈ 19.4 µM); against Listeria monocytogenes, 4.7 µg/mL (≈ 9.7 µM); against Staphylococcus aureus [1] it was greater than 128 µg/mL; with Bacillus anthracis it was greater than 128 µg/mL; in the data set with Staphylococcus aureus [2], 0.5 µg/mL (≈ 1.03 µM); against Haemophilus influenzae it was 9.4 µg/mL (≈ 19.4 µM). The MIC in data set [3] was greater than 128 µg/mL; with Pseudomonas aeruginosa it was 37.5 µg/mL (≈ 77.4 µM); against Staphylococcus aureus [4] it was greater than 128 µg/mL; in the data set with Bacillus subtilis it was greater than 150 µg/mL.
Consider `CCN[C@@H]1C[C@H](N)[C@@H](O[C@H]2OC(CN)=CC[C@H]2N)[C@H](O)[C@H]1O[C@H]1OC[C@](C)(O)[C@H](NC)[C@H]1O` [NETILMICIN], for which the MIC in the data set on Bacillus cereus is 4.7 µg/mL (≈ 9.88 µM); in the data set with Listeria monocytogenes it was 2.3 µg/mL (≈ 4.84 µM); against Staphylococcus aureus [1] it was no more than 0.25 µg/mL; in the data set with Bacillus anthracis, no more than 0.25 µg/mL; against Staphylococcus aureus [2] it was no more than 0.25 µg/mL; with Haemophilus influenzae, 2.3 µg/mL (≈ 4.84 µM). The MIC in data set [3] is no more than 0.25 µg/mL; in the data set on Pseudomonas aeruginosa it was 2.3 µg/mL (≈ 4.84 µM); with Staphylococcus aureus [4], no more than 0.25 µg/mL; with Bacillus subtilis, 4.7 µg/mL (≈ 9.88 µM).
As to `CN[C@@H]1[C@@H](O)[C@@H](O[C@@H]2[C@@H](O)[C@H](O[C@H]3OC(CN)=CC[C@H]3N)[C@@H](N)C[C@H]2N)OC[C@]1(C)O` [SISOMICIN], the MIC against Bacillus cereus was 9.4 µg/mL (≈ 21 µM); in the data set with Listeria monocytogenes, 2.3 µg/mL (≈ 5.14 µM); against Staphylococcus aureus [1], no more than 0.25 µg/mL; in the data set with Bacillus anthracis, no more than 0.25 µg/mL; in the data set on Staphylococcus aureus [2] it was no more than 0.25 µg/mL; with Haemophilus influenzae, 4.7 µg/mL (≈ 10.5 µM). Besides, the MIC in [3] is no more than 0.25 µg/mL; against Pseudomonas aeruginosa, 1.2 µg/mL (≈ 2.68 µM); in the data set with Staphylococcus aureus [4], no more than 0.25 µg/mL; against Bacillus subtilis, 4.7 µg/mL (≈ 10.5 µM).
For the compound `NC[C@H]1O[C@H](O[C@H]2[C@H](O)[C@@H](O[C@H]3O[C@H](CO)[C@@H](O)[C@H](N)[C@H]3O)[C@H](N)C[C@@H]2N)[C@H](N)C[C@@H]1O` [TOBRAMYCIN], the MIC against Bacillus cereus was 9.4 µg/mL (≈ 20.1 µM); in the data set on Listeria monocytogenes, 2.3 µg/mL (≈ 4.92 µM); against Staphylococcus aureus [1], no more than 0.25 µg/mL; against Bacillus anthracis it was greater than 128 µg/mL; against Staphylococcus aureus [2], 0.5 µg/mL (≈ 1.07 µM); in the data set with Haemophilus influenzae it was 4.7 µg/mL (≈ 10.1 µM). Moreover, the MIC in data set [3] was no less than 128 µg/mL; in the data set on Pseudomonas aeruginosa, 0.6 µg/mL (≈ 1.28 µM); in the data set with Staphylococcus aureus [4], greater than 128 µg/mL; in the data set with Bacillus subtilis it was 9.4 µg/mL (≈ 20.1 µM).

Source of the values: ChEMBL document CHEMBL3751713, “Synthesis and Biological Activity of Mono- and Di-N-acylated Aminoglycosides” (ACS Med Chem Lett, 2015).
